From the CheMixHub viscosity set
“And” between values parts separate entries of the source, which are not always exact repeats. Equal entries are not always repeated.

Assay: xn = mol fraction of the nth substance listed

CC(C)O + O
Details | viscosity
308.15 K, 101 kPa, x2 = 0.26 | 1.616 mPa·s
308.15 K, 101 kPa, x2 = 0.4678 | 1.856 mPa·s
308.15 K, 101 kPa, x2 = 0.6079 | 2.072 mPa·s
308.15 K, 101 kPa, x2 = 0.685 | 2.169 mPa·s
308.15 K, 101 kPa, x2 = 0.7249 | 2.178 mPa·s
308.15 K, 101 kPa, x2 = 0.805 | 2.088 mPa·s
308.15 K, 101 kPa, x2 = 0.89 | 1.675 mPa·s
308.15 K, 101 kPa, x2 = 0.9549 | 1.23 mPa·s
313.15 K, 101 kPa, x1 = 0.01 | 0.733 mPa·s
313.15 K, 101 kPa, x1 = 0.02 | 0.823 mPa·s
313.15 K, 101 kPa, x1 = 0.032 | 0.933 mPa·s
313.15 K, 101 kPa, x1 = 0.05 | 1.098 mPa·s
313.15 K, 101 kPa, x1 = 0.07069 | 1.27 mPa·s
313.15 K, 101 kPa, x1 = 0.1 | 1.458 mPa·s
313.15 K, 101 kPa, x1 = 0.11 | 1.495 mPa·s
313.15 K, 101 kPa, x1 = 0.2 | 1.789 mPa·s
313.15 K, 101 kPa, x1 = 0.23 | 1.821 mPa·s
313.15 K, 101 kPa, x1 = 0.41 | 1.731 mPa·s
313.15 K, 101 kPa, x2 = 0.1049 | 1.365 mPa·s
313.15 K, 101 kPa, x2 = 0.26 | 1.412 mPa·s
313.15 K, 101 kPa, x2 = 0.4678 | 1.604 mPa·s
313.15 K, 101 kPa, x2 = 0.6079 | 1.788 mPa·s
313.15 K, 101 kPa, x2 = 0.685 | 1.855 mPa·s
313.15 K, 101 kPa, x2 = 0.7249 | 1.858 mPa·s
313.15 K, 101 kPa, x2 = 0.805 | 1.781 mPa·s
313.15 K, 101 kPa, x2 = 0.89 | 1.447 mPa·s
313.15 K, 101 kPa, x2 = 0.9549 | 1.076 mPa·s
313.15 K, 101.33 kPa, x1 = 0.015 | 0.7848 mPa·s
313.15 K, 101.33 kPa, x1 = 0.05 | 1.113 mPa·s
313.15 K, 101.33 kPa, x1 = 0.075 | 1.292 mPa·s
313.15 K, 101.33 kPa, x1 = 0.1 | 1.453 mPa·s
313.15 K, 101.33 kPa, x1 = 0.15 | 1.665 mPa·s
313.15 K, 101.33 kPa, x1 = 0.2 | 1.777 mPa·s
313.15 K, 101.33 kPa, x1 = 0.25 | 1.823 mPa·s
313.15 K, 101.33 kPa, x1 = 0.3 | 1.822 mPa·s
313.15 K, 101.33 kPa, x1 = 0.4 | 1.756 mPa·s
313.15 K, 101.33 kPa, x1 = 0.5 | 1.649 mPa·s
313.15 K, 101.33 kPa, x1 = 0.6 | 1.539 mPa·s
313.15 K, 101.33 kPa, x1 = 0.7 | 1.446 mPa·s
313.15 K, 101.33 kPa, x1 = 0.8 | 1.375 mPa·s
313.15 K, 101.33 kPa, x1 = 0.85 | 1.35 mPa·s
313.15 K, 101.33 kPa, x1 = 0.9 | 1.327 mPa·s
313.15 K, 101.33 kPa, x1 = 0.925 | 1.331 mPa·s
313.15 K, 101.33 kPa, x1 = 0.95 | 1.332 mPa·s
313.15 K, 101.33 kPa, x1 = 0.975 | 1.336 mPa·s
318.15 K, 101 kPa, x1 = 0.01 | 0.664 mPa·s
318.15 K, 101 kPa, x1 = 0.02 | 0.739 mPa·s
318.15 K, 101 kPa, x1 = 0.032 | 0.836 mPa·s
318.15 K, 101 kPa, x1 = 0.05 | 0.966 mPa·s
318.15 K, 101 kPa, x1 = 0.07069 | 1.103 mPa·s
318.15 K, 101 kPa, x1 = 0.1 | 1.261 mPa·s
318.15 K, 101 kPa, x1 = 0.11 | 1.315 mPa·s
318.15 K, 101 kPa, x1 = 0.2 | 1.539 mPa·s
318.15 K, 101 kPa, x1 = 0.23 | 1.579 mPa·s
318.15 K, 101 kPa, x1 = 0.41 | 1.484 mPa·s
318.15 K, 101 kPa, x2 = 0.1049 | 1.182 mPa·s
318.15 K, 101 kPa, x2 = 0.26 | 1.237 mPa·s
318.15 K, 101 kPa, x2 = 0.4678 | 1.397 mPa·s
318.15 K, 101 kPa, x2 = 0.6079 | 1.561 mPa·s
318.15 K, 101 kPa, x2 = 0.685 | 1.604 mPa·s
318.15 K, 101 kPa, x2 = 0.7249 | 1.598 mPa·s
318.15 K, 101 kPa, x2 = 0.805 | 1.539 mPa·s
318.15 K, 101 kPa, x2 = 0.89 | 1.255 mPa·s
318.15 K, 101 kPa, x2 = 0.9549 | 0.95 mPa·s
323.15 K, 100 kPa, x1 = 0.2 | 1.375 mPa·s and 1.3 mPa·s
323.15 K, 100 kPa, x1 = 0.3 | 1.387 mPa·s
323.15 K, 100 kPa, x2 = 0.1 | 1.03 mPa·s
323.15 K, 100 kPa, x2 = 0.2 | 1.08 mPa·s
323.15 K, 100 kPa, x2 = 0.3 | 1.11 mPa·s
323.15 K, 100 kPa, x2 = 0.4 | 1.21 mPa·s
323.15 K, 100 kPa, x2 = 0.5 | 1.26 mPa·s
323.15 K, 100 kPa, x2 = 0.6 | 1.37 mPa·s
323.15 K, 100 kPa, x2 = 0.7 | 1.37 mPa·s
323.15 K, 100 kPa, x2 = 0.8 | 1.37 mPa·s
323.15 K, 100 kPa, x2 = 0.9 | 1.14 mPa·s
323.15 K, 101 kPa, x1 = 0.01 | 0.604 mPa·s
323.15 K, 101 kPa, x1 = 0.02 | 0.668 mPa·s
323.15 K, 101 kPa, x1 = 0.05 | 0.856 mPa·s
323.15 K, 101 kPa, x1 = 0.07069 | 0.969 mPa·s
323.15 K, 101 kPa, x1 = 0.1 | 1.101 mPa·s
